The source of these data is PMC6016474, “Structural and functional determination of homologs of the Mycobacterium tuberculosis N-acetylglucosamine-6-phosphate deacetylase (NagA)” (The Journal of Biological Chemistry, 2018).

One assay addresses T1, MSNagA (Mycolicibacterium smegmatis, UniProt A0QU89, D267A).
T1 construct: gene nagA; full-length, 385 residues, N-terminal His6 tag; expressed in M. smegmatis mc2 4517 (pYUB1062) for wild-type rows, in E. coli (pET28a) for D267A
T1 sequence (A0QU89 1-385 D267A): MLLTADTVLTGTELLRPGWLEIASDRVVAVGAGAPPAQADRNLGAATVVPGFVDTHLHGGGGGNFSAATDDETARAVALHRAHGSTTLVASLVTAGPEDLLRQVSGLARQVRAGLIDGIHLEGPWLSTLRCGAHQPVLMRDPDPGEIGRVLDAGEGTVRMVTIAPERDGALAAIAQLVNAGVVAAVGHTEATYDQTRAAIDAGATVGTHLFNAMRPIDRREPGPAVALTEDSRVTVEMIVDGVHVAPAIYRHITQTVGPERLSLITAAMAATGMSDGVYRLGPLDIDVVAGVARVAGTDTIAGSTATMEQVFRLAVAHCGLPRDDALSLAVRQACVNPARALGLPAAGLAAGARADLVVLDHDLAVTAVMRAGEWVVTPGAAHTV
Briefly: X-ray co-crystal structure, […] Å. Particulars: active site of chain A at dimer interface, Zn and Cd modelled, ligand occupancy 0.75. In kind it is binding.

The next assay addresses T2, MMNagA (Mycobacterium marinum, UniProt B2HDT2).
T2 construct: gene nagA; full-length from gDNA, N-terminal His6 tag (pET28a, NdeI/HindIII), E. coli BL21(DE3) with Mtb GroES chaperone
The conditions noted are these: read-out: MST Kd; binder.

T2 sequence (B2HDT2 entry or part of it): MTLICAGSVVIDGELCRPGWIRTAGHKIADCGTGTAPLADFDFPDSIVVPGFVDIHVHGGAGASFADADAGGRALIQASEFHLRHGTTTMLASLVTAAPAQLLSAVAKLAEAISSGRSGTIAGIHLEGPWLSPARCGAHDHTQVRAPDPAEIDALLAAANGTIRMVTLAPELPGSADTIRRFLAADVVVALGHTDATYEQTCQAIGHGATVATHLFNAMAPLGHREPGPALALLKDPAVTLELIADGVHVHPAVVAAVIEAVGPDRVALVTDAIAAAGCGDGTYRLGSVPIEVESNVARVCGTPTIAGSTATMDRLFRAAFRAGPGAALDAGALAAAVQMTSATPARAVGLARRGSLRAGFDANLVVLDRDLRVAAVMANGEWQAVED

Take `CC(=O)N[C@H]1C(O)O[C@H](COP(=O)(O)O)[C@@H](O)[C@@H]1O` (stereo partly drawn) [GlcNAc6P]: the “X-ray co-crystal structure, 2.0 Å” value at MSNagA is reported as 6FV4 for the GlcNAc6P-MSNagA co-crystal structure. For the same molecule, at MMNagA, the dissociation constant (Kd) (as a rule, the concentration at which binding is half-saturated) was 1200 ± 50 µM.
Consider `CC(=O)N[C@@H]1C(O)O[C@H](COP(=O)(O)O)[C@@H](O)[C@@H]1O` (stereo partly drawn) [ManNAc6P], for which the Kd at MMNagA came out at 3800 ± 300 µM.
